Laboratory results from patent EP2401611B1, “IMPROVED METHODS FOR IDENTIFICATION” (Cambridge Enterprise Limited, priority 2009, dated 2010).

How the values were obtained:
TNF-alpha = assay: Sub-lethal endotoxemia model (LPS challenge, serum TNF-alpha); assay type: in vivo, mouse; settings: very high / highest doses
Description: We selected the sub-lethal endotoxemia model in mouse, because this has been well characterised in our laboratory (see for example Fox et al. (2002) J. Med. Chem. 45:360-70; Fox et al. (2005) J. Med. Chem. 48:867-74). The extent of systemic inflammation in response to a single intraperitoneal injection of bacterial lipopolysaccharide (LPS) can be estimated by measuring serum TNF-alpha 2 hours post challenge.
Methods: Mice (CD1 strain; adult males; 6 per group) were treated with BSCI (in an appropriate vehicle) or with vehicle alone by an appropriate route. […] Simultaneously, one set of mice at each BSCI concentration received BIM 23627 at 4mg/animal (120mg/kg) by sub-cutaneous injection (a treatment condition known to suppress classical sstr2-mediated signalling, such as GH release, in rats; Tulipano et al. (2002) 143:1218-24). Between 30mins and 1hour after dosing (a period when a maximal plasma concentration of BSCI has been achieved), the inflammatory challenge was elicited by intraperitoneal injection of 750µg of LPS (Sigma; L4130 lot#024K4077; 900,000 EU/mg).
After a further 2 hours, the animals were sacrificed by CO2 asphyxiation, and blood was drawn by cardiac puncture. Serum was prepared by conventional methods, and the level of TNF-alpha in serum was measured using an ELISA (R&D Systems; Murine Quantikine code# MTA00) performed in accordance with the manufacturer's instructions.

THP-1 cells = assay: MCP-1 induced THP-1 cell migration (Transwell) assay; assay type: cell-based, human
Description: In principle, this assay consists of two chambers separated by a porous membrane. The chemoattractant is placed in the lower compartment and the cells are placed in the upper compartment.
The method was performed essentially as previously described (Reckless & Grainger (1999) Biochem. J. 340:803-11).
First, the cell suspension to be placed in the upper compartment was prepared.
Next, the chemoattractant solution to be placed in the lower compartment was prepared. […] Note that, as recommended by Frow et al (Med. Res. Rev. 24:276-98) this is the concentration of MCP-1 which induces maximal migration in this system. This solution was divided into three pots, as for the cell suspension.
Once the chemoattractant solutions for the lower wells and cell solutions for the upper chambers were prepared, the migration chamber was assembled. […] Assays were performed with at least triplicate determinations of each condition. Once all the lower chambers were filled, the porous membrane was applied to the chamber in accordance with the manufacturer's instructions. […] A plastic lid was placed over the entire apparatus to prevent evaporation.
This procedure caused any cells adhering to the underside of the membrane to fall into the lower chamber.
The number of cells migrated into the lower chamber under each condition can then be determined by a number of methods, including direct counting, labelling with fluorescent or radioactive markers or through the use of a vital dye. Typically, we utilised the vital dye MTT.

| Compound | inhibition of TNF-alpha (TNF-alpha) | ED50 for inhibition of chemokine-induced THP-1 cell migration (THP-1 cells) | ED50 (THP-1 cells; Table 2, inhibition of MCP-1 induced THP-1 cell migration) | Max effect (THP-1 cells; Table 2, maximum inhibition at the highest dose tested (1-10µM)) | maximal inhibition of leukocyte migration (THP-1 cells; even at maximal / very high doses) |
| --- | --- | --- | --- | --- | --- |
| C[C@@H]1C[C@H]2[C@@H]3CCC4=CC(=O)C=C[C@]4(C)[C@@]3(F)[C@@H](O)C[C@]2(C)[C@@]1(O)C(=O)CO [dexamethasone] | more than 90% | – | – | – | – |
| Cortistatin | – | ~75 nM | 75 nM | 40-60% | ~50% |
